According to US8691993B2, “Piperidinyl naphthylacetic acids” (Hoffman-La Roche Inc., priority 2011, dated 2014):

Molecular target: human CRTH2 receptor (Homo sapiens (Human), UniProt Q9Y5Y4)
Experiment: Calcium Flux Assay Using Fluorometric Imaging Plate Reader (FLIPR)
Format: cell-based
Details: CHO-K1 cells transfected with G-alpha 16 and human CRTH2 receptor; DK-PGD2 ligand; 1 hour compound incubation
Description: Calcium Flux Assay Using Fluorometric Imaging Plate Reader (FLIPR)
CHO-K1 cells previously transfected with G-alpha 16 were subsequently transfected with the human CRTH2 receptor and the neomycin resistance gene. Following selection in 800 μg/mL G418 (geneticin), individual clones were assayed for their receptor expression based on staining with an anti human CRTH2 IgG, followed by assaying for their response to 13,14-dihydro-15-keto Prostaglandin D2 (DK-PDG2) (ligand) in the Ca^2+ Flux assay. Positive clones were then cloned by limiting dilution cloning. The transfected cells were cultured in Ham's F-12 medium supplemented with 10% fetal bovine serum, 2 mM glutamine, 100 U/mL penicillin/100 μg/mL streptomycin, 200 μg/mL hygromycin B, and 800 μg/mL G418 (geneticin). Cells were harvested with trypsin-EDTA (trypsin-ethylenediaminetetraacetic acid) and counted using ViaCount® reagent (from Guava Technologies, Inc. which contains two DNA-binding dyes that enable the reagent user to distinguish between viable and non-viable cells). The cell suspension volume was adjusted to 2.5×10^5 cells/mL with complete growth media. Aliquots of 50 μL were dispensed into BD Falcon™ 384 well black/clear microplates (from BD Biosciences, a division of Becton, Dickinson and Company) and the microplates were placed in a 37° C. CO2 incubator overnight. The following day, the microplates were used in the assay.
Loading Buffer containing dye (from the FLIPR® Calcium 3 Assay Kit from Molecular Devices, a division of MDS Analytical Technologies and MDS Inc.) was prepared by dissolving the contents of one bottle into 200 mL Hank's Balanced Salt Solution containing 20 mM HEPES (4-(2-hydroxyethyl)-1-piperazineethanesulfonic acid) and 2.5 mM probenecid. Growth media was removed from the cell plates and 25 μL of Hank's Balanced Salt Solution (HBSS) containing 20 mM HEPES, 0.05% BSA and 2.5 mM probenecid was added to each well followed by 25 μL of diluted dye using a Multidrop dispenser. The plates were then incubated for 1 hour at 37° C.
During the incubation, test compound plates were prepared by adding 90 μL of HBSS/20 mM HEPES/0.005% BSA buffer to the 2 μL of serial diluted compounds. To prepare serial diluted compounds, 20 mM stocks of compounds were dissolved in 100% DMSO. The compound dilution plate was set up as follows: well #1 received 5 μL of compound plus 10 μL of DMSO. Wells 2-10 received 10 μL of DMSO. 5 μL was mixed and transferred from well #1 into well #2. 1:3 serial dilutions were continued out 10 steps. 2 μL of diluted compound was transferred into duplicate wells of a 384 well “assay plate” and then 90 μL of buffer was added.
After incubation, both the cell and “assay plate” plates were brought to the fluorometric imaging plate reader (FLIPR®) and 20 μL of the diluted compounds were transferred to the cell plates by the FLIPR®. Plates were then incubated for 1 hour at room temperature. After the 1 hour incubation, plates were returned to the FLIPR® and 20 μL of 4.5× concentrated ligand was added to the cell plates. During the assay, fluorescence readings were taken simultaneously from all 384 wells of the cell plate every 1.5 seconds. Five readings were taken to establish a stable baseline, then 20 μL of sample was rapidly (30 μL/sec) and simultaneously added to each well of the cell plate. The fluorescence was continuously monitored before, during and after sample addition for a total elapsed time of 100 seconds. Responses (increase in peak fluorescence) in each well following agonist addition were determined. The initial fluorescence reading from each well, prior to ligand stimulation, was used as a zero baseline value for the data from that well. The responses were expressed as % inhibition of the buffer control. […]

Sequence of human CRTH2 receptor (Q9Y5Y4 whole entry): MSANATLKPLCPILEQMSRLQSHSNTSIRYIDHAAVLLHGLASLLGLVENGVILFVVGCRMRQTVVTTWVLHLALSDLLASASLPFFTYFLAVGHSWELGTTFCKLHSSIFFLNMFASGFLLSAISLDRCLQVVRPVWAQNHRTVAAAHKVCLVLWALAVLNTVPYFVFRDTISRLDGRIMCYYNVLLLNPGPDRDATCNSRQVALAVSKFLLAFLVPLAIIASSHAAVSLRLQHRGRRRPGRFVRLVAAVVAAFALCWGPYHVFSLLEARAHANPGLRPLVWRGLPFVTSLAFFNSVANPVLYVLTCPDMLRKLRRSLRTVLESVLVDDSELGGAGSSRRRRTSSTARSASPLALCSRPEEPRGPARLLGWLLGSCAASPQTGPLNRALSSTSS

Row | Structure (SMILES) | IC50
1 | O=C(O)Cc1cc(C2CCN(S(=O)(=O)c3ccccc3)CC2)c2cc(F)ccc2c1 [Example 1, [4-(1-Benzenesulfonyl-piperidin-4-yl)-6-fluoro-naphthalen-2-yl]-acetic acid] | 18 nM
2 | Cc1ccc(S(=O)(=O)N2CCC(c3cc(CC(=O)O)cc4ccc(F)cc34)CC2)cc1 [Example 2, {6-Fluoro-4-[1-(toluene-4-sulfonyl)-piperidin-4-yl]-naphthalen-2-yl}-acetic acid] | 53 nM
3 | O=C(O)Cc1cc(C2CCN(S(=O)(=O)c3ccccn3)CC2)c2cc(F)ccc2c1 [Example 3, {6-Fluoro-4-[1-(pyridine-2-sulfonyl)-piperidin-4-yl]-naphthalen-2-yl}-acetic acid] | 104 nM
4 | O=C(O)Cc1cc(C2CCN(S(=O)(=O)c3cccnc3)CC2)c2cc(F)ccc2c1 [Example 4, {6-Fluoro-4-[1-(pyridine-3-sulfonyl)-piperidin-4-yl]-naphthalen-2-yl}-acetic acid] | 1740 nM
5 | O=C(O)Cc1cc(C2CCN(S(=O)(=O)c3ccncc3)CC2)c2cc(F)ccc2c1 [Example 5, {6-Fluoro-4-[1-(pyridine-4-sulfonyl)-piperidin-4-yl]-naphthalen-2-yl}-acetic acid] | 898 nM
6 | O=C(O)Cc1cc(C2CCN(S(=O)(=O)c3ccccc3Cl)CC2)c2cc(F)ccc2c1 [Example 6, {4-[1-(2-Chloro-benzenesulfonyl)-piperidin-4-yl]-6-fluoro-naphthalen-2-yl}-acetic acid] | 2.5 nM

Now from value to compound:

Row | IC50 | Structure (SMILES)
7 | 95 nM | O=C(O)Cc1cc(C2CCN(S(=O)(=O)c3cccc(Cl)c3)CC2)c2cc(F)ccc2c1 [Example 7, {4-[1-(3-Chloro-benzenesulfonyl)-piperidin-4-yl]-6-fluoro-naphthalen-2-yl}-acetic acid]
8 | 42 nM | O=C(O)Cc1cc(C2CCN(S(=O)(=O)c3ccc(Cl)cc3)CC2)c2cc(F)ccc2c1 [Example 8, {4-[1-(4-Chloro-benzenesulfonyl)-piperidin-4-yl]-6-fluoro-naphthalen-2-yl}-acetic acid]
9 | 1150 nM | CS(=O)(=O)c1cccc(S(=O)(=O)N2CCC(c3cc(CC(=O)O)cc4ccc(F)cc34)CC2)c1 [Example 9, {6-Fluoro-4-[1-(3-methanesulfonyl-benzenesulfonyl)-piperidin-4-yl]-naphthalen-2-yl}-acetic acid]
10 | 3.5 nM | O=C(O)Cc1cc(C2CCN(S(=O)(=O)c3cc(Cl)ccc3Cl)CC2)c2cc(F)ccc2c1 [Example 10, {4-[1-(2,5-Dichloro-benzenesulfonyl)-piperidin-4-yl]-6-fluoro-naphthalen-2-yl}-acetic acid]
11 | 4.8 nM | O=C(O)Cc1cc(C2CCN(S(=O)(=O)c3ccc(Cl)cc3Cl)CC2)c2cc(F)ccc2c1 [Example 11, {4-[1-(2,4-Dichloro-benzenesulfonyl)-piperidin-4-yl]-6-fluoro-naphthalen-2-yl}-acetic acid]
12 | 404 nM | O=C(O)Cc1cc(C2CCN(S(=O)(=O)c3cc(Cl)cc(Cl)c3)CC2)c2cc(F)ccc2c1 [Example 12, {4-[1-(3,5-Dichloro-benzenesulfonyl)-piperidin-4-yl]-6-fluoro-naphthalen-2-yl}-acetic acid]
13 | 1350 nM | O=C(O)Cc1cc(C2CCN(S(=O)(=O)c3cc(C(F)(F)F)cc(C(F)(F)F)c3)CC2)c2cc(F)ccc2c1 [Example 13, {4-[1-(3,5-Bis-trifluoromethyl-benzenesulfonyl)-piperidin-4-yl]-6-fluoro-naphthalen-2-yl}-acetic acid]
